According to patent publication US20230405002A1, “COMBINATIONS OF DIACYLGLYCEROL ACYLTRANSFERASE 2 INHIBITORS AND ACETYL-COA CARBOXYLASE INHIBITOR” (Pfizer Inc., priority 2020, published 2023):
Counter-ions that a name gives are not always drawn.

Key:
[1] = Determination of pKa (capillary electrophoresis); settings: most basic pKa, mean
human hepatocytes = test: High throughput intrinsic clearance in human hepatocytes; settings: high throughput human hepatocyte assay, 1 μM
Method: The high throughput human hepatocyte stability assay was performed in a 384-well format (Di, L., et al. 2012, Eur. J. Med. Chem., 57, 441-448). Pooled cryopreserved human hepatocytes of 10 donors were purchased from BioreclamationlVT (Baltimore, MD, Lot DCM). The cryopreserved human hepatocytes were thawed, and re-suspended in Williams E medium (WEM GIBCO, custom formula #A28859EA) supplemented with HEPES and Na2CO3. The cells were counted using the Trypan Blue exclusion method. The Multidrop® liquid dispenser (Multidrop DW, Thermo Scientific, Waltham, MA) was used to add the hepatocyte suspensions to the 384-well plates. The cell plates were covered and transferred to a Sciclone® ALH 3000 workstation (Caliper Life Sciences, Hopkinton, MA), equipped with two 6-position Mecour heat exchangers. Test compounds were diluted on the Sciclone® with buffer and added to the hepatocytes. The final incubation contained 0.5 million cells/mL and 1 μM test compound in 15 μL total volume with 0.01% DMSO. The incubation was carried out at 37° C. At various time points (0, 3, 10, 30, 60, 120, 240 min), the reactions were quenched with cold acetonitrile containing internal standard (Example 39A, WO1999/57125). The samples were centrifuged (Eppendorf, Hauppauge, NY) at 3000 rpm for 5 min at 4° C. The supernatants were transferred using the BioMek® FX liquid handler (Beckman Coulter, Inc. Danvers MA) to new plates with water addition, which were sealed prior to LC-MS/MS analysis. […] The data are presented as the mean+/− standard deviation, with the number of replicates (n) shown.

human liver microsomes = test: Intrinsic clearance in human liver microsomes; settings: human liver microsome assay, 1 μM
Method: The high throughput human microsomal stability assay was performed in a 384-well format (Di, L., et al. 2012, Eur. J. Med. Chem., 57, 441-448). All liquid handling and incubation were conducted with a Biomek FX (Beckman Coulter, Inc., Indianapolis, IN), equipped with one 3-position Mecour heated deck positions. Pooled human liver microsomes of 50 donors (Lot: HLM-103) were purchased from BD Biosciences (Bedford, MA). Each incubation contained test compound (1 μM), human liver microsomes (0.25 μM CYP protein equivalent to 0.806 mg/mL protein concentration), NADPH 20.9 mM, MgCl2 (3.3 mM) and potassium phosphate buffer (100 mM at pH 7.4). The final reaction volume was 45 μL containing 0.1% DMSO. The incubations were conducted at 37° C. At various time points (e.g. 1, 4, 7, 12, 20, 25, 45 and 60 min), cold acetonitrile with mass spectrometry (MS) internal standard (Example 39A, WO1999/57125) was added to quench the reaction. The plates were centrifuged at 3000 rpm for 1 min at 4° C. […] The plates were sealed and subsequently analyzed using LC-MS/MS. Control plates were prepared in the same manner without adding the NADPH cofactor to monitor any non-CYP/FMO catalyzed decline. […] The data are presented as the mean+/− standard deviation, with the number of replicates (n) shown.

human DGAT2 (hDGAT2) = human DGAT2 (hDGAT2) (Homo sapiens (Human), UniProt Q96PD7); test: In vitro DGAT2 assay, determination of IC50 values; format: biochemical; settings: geometric mean; hDGAT2 membrane fraction
[2] = target: DGAT2 in human hepatocytes (Homo sapiens (Human), UniProt Q96PD7); test: Determination of IC50 values for DGAT2 inhibitors in human hepatocytes; format: cell-based; settings: geometric mean; cryopreserved human hepatocytes, DGAT1 inhibitor 3 μM present
Method: For evaluation of the effects of DGAT2 inhibitors in a cell-based setting, cryopreserved human hepatocytes (Lot DOO, Celsis, Baltimore, MD) were thawed and plated onto type I collagen-coated plates according to the manufacturer's instructions. After 18 hours overnight recovery period, the cells were overlayed with media containing 250 μg/mL Geltrex Basement Membrane Matrix (Thermo Fisher). The following day, media was aspirated and replaced with serum-free Williams Media E (Thermo Fisher) containing 400 μM sodium dodecanoate (Sigma-Aldrich, St. Louis, MO) and 2 mM GlutaMAX (Thermo Fisher). […] DGAT2 inhibitors were then added to the desired final concentration. After a 15 minute preincubation, 0.2 μCi [^14C(U)]-glycerol (Perkin Elmer) was added to each well followed by a 3 hour incubation. At this point the media was removed, and the cells lysed via orbital shaking in isopropyl alcohol: tetrahydrofuran (9:1) for 15 minutes prior to centrifugation at 3000 rpm for 10 minutes. Radiolabeled lipids were resolved using a solvent system by thin layer chromatography with the solvent consisting of hexanes: diethyl ether: glacial acetic acid (75:23:2, v/v/v). After separation, radiolabeled lipids were visualized using the Typhoon 9500 phosphorimaging system (GE). The half maximal inhibitory concentrations (IC50 values) were determined by nonlinear regression analysis of the % inhibition dose response curve using GraphPad Prism (GraphPad Software, Inc., La Jolla, CA).
Table 12 below provides the IC50 values of selected Examples for inhibition of DGAT2 in human hepatocytes in accordance with the above-described assay. Results are reported as geometric mean IC50 values, with the number of replicates (n) shown.

DGAT2 in human hepatocytes, sequence (Q96PD7 whole entry): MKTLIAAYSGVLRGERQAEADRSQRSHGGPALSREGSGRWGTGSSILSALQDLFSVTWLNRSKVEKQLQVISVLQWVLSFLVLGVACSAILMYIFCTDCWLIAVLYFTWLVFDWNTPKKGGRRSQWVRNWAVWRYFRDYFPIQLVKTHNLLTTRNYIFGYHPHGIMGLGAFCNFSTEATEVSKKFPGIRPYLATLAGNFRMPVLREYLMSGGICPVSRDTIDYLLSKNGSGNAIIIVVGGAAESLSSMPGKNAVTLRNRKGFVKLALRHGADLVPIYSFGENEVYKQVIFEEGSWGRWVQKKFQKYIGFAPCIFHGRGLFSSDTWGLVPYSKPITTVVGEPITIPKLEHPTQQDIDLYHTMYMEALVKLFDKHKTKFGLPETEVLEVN
human DGAT2 (hDGAT2), sequence (Q96PD7 whole entry): as above

Row | SMILES | Basic pKa [1] | CLint (+/− Std Dev) (human hepatocytes; trifluoroacetate salt) | CLint (+/− STD Dev) (human liver microsomes; trifluoroacetate salt) | IC50 (human DGAT2 (hDGAT2)) | IC50 [2] | CLint (+/− Std Dev) (human hepatocytes) | CLint (+/− STD Dev) (human liver microsomes)
1 | CCOc1cccnc1Oc1cncc(-c2ncc(C(=O)N[C@H]3CC[C@H](C(F)(F)F)NC3)cn2)c1 (racemic) [Example 8, rac-2-{5-[(3-ethoxypyridin-2-yl)oxy]pyridin-3-yl}-N-[(3R,6S)-6-(trifluoromethyl)piperidin-3-yl]pyrimidine-5-carboxamide or rac-2-{5-[(3-ethoxypyridin-2-yl)oxy]pyridin-3-yl}-N-[(3R,6R)-6-(trifluoromethyl)piperidin-3-yl]pyrimidine-5-carboxamide] | 5.3 | – | – | – | – | – | –
2 | CCOc1cccnc1Oc1cncc(-c2ncc(C(=O)N[C@H]3CNCCC3(F)F)cn2)c1 (single isomer, unassigned) [Example 16, N-[(3S)-4,4-difluoropiperidin-3-yl]-2-{5-[(3-ethoxypyridin-2-yl)oxy]pyridin-3-yl}pyrimidine-5-carboxamide, trifluoroacetate salt or N-[(3R)-4,4-difluoropiperidin-3-yl]-2-{5-[(3-ethoxypyridin-2-yl)oxy]pyridin-3-yl}pyrimidine-5-carboxamide, trifluoroacetate salt] | – | 4.7 +/− 1.4 μL/min/10^6 cells | 17 µL/min/mg | – | – | – | –
3 | CCOc1cccnc1Oc1cncc(-c2ncc(C(=O)N[C@@H]3CNCC(F)(F)C3)cn2)c1 (single isomer, unassigned) [Example 18, N-[(3S)-5,5-difluoropiperidin-3-yl]-2-{5-[(3-ethoxypyridin-2-yl)oxy]pyridin-3-yl}pyrimidine-5-carboxamide or N-[(3R)-5,5-difluoropiperidin-3-yl]-2-{5-[(3-ethoxypyridin-2-yl)oxy]pyridin-3-yl}pyrimidine-5-carboxamide] | – | – | – | 140 nM | 20 nM | – | –
4 | CCOc1cccnc1Oc1cncc(-c2ncc(C(=O)N[C@@H]3CNCC(F)(F)C3)cn2)c1 (single isomer, unassigned) [Example 19, N-[(3S)-5,5-difluoropiperidin-3-yl]-2-{5-[(3-ethoxypyridin-2-yl)oxy]pyridin-3-yl}pyrimidine-5-carboxamide or N-[(3R)-5,5-difluoropiperidin-3-yl]-2-{5-[(3-ethoxypyridin-2-yl)oxy]pyridin-3-yl}pyrimidine-5-carboxamide] | 5.2 | – | – | 240 nM | – | 14 +/− 1.4 μL/min/10^6 cells | 34 ± 1.9 µL/min/mg
5 | CCOc1cccnc1Oc1cncc(-c2ncc(C(=O)NC3CCC(C(F)(F)F)NC3)cn2)c1 (single isomer, unassigned; ent-1) [Example 10, 2-{5-[(3-ethoxypyridin-2-yl)oxy]pyridin-3-yl}-N-[6-(trifluoromethyl)piperidin-3-yl]pyrimidine-5-carboxamide, trifluoroacetate salt, ENT-1] | 4.7 | – | – | 39 nM | – | – | –
6 | CCOc1cccnc1Oc1cncc(-c2ncc(C(=O)NC3CCC(C(F)(F)F)NC3)cn2)c1 (single isomer, unassigned; ent-2) [Example 11, 2-{5-[(3-ethoxypyridin-2-yl)oxy]pyridin-3-yl}-N-[6-(trifluoromethyl)piperidin-3-yl]pyrimidine-5-carboxamide, trifluoroacetate salt, ENT-2] | – | – | – | 4.4 nM | – | 38 +/− 2.0 μL/min/10^6 cells | >290 µL/min/mg
7 | CCOc1cc(F)cnc1Oc1cncc(-c2ncc(C(=O)N[C@@H]3CNCC[C@@H]3F)cn2)c1.O=C(O)C(F)(F)F.O=C(O)C(F)(F)F [Example 1, 2-{5-[(3-Ethoxy-5-fluoropyridin-2-yl)oxy]pyridin-3-yl}-N-[(3R,4S)-4-fluoropiperidin-3-yl]pyrimidine-5-carboxamide, bis(trifluoroacetate) salt] | 7.7 | – | – | 5.8 nM | – | <2.7 +/− 0.72 μL/min/10^6 cells | <7 µL/min/mg
8 | CCOc1cc(F)cnc1Oc1cncc(-c2ncc(C(=O)N[C@@H]3CNC[C@@H](F)C3)cn2)c1 [Example 2, 2-{5-[(3-Ethoxy-5-fluoropyridin-2-yl)oxy]pyridin-3-yl}-N-[(3S,5S)-5-fluoropiperidin-3-yl]pyrimidine-5-carboxamide] | – | – | – | 8.6 nM | 4.1 nM | – | –
9 | CCOc1cccnc1Oc1cncc(-c2ncc(C(=O)N[C@@H]3CNCC[C@@H]3F)cn2)c1.O=C(O)C(F)(F)F.O=C(O)C(F)(F)F [Example 3, 2-{5-[(3-Ethoxypyridin-2-yl)oxy]pyridin-3-yl}-N-[(3R,4S)-4-fluoropiperidin-3-yl]pyrimidine-5-carboxamide, bis(trifluoroacetate) salt] | 8.1 | – | – | 40 nM | 23 nM | <1.9 +/− 0.35 μL/min/10^6 cells | <7 µL/min/mg
10 | CCOc1cc(F)cnc1Oc1cncc(-c2ncc(C(=O)N[C@@H]3CNCC[C@H]3F)cn2)c1 [Example 6, 2-{5-[(3-Ethoxy-5-fluoropyridin-2-yl)oxy]pyridin-3-yl}-N-[(3R,4R)-4-fluoropiperidin-3-yl]pyrimidine-5-carboxamide] | – | – | – | 80 nM | 2.4 nM | – | –
11 | CCOc1cc(F)cnc1Oc1cncc(-c2ncc(C(=O)N[C@H]3CNCC[C@@H]3F)cn2)c1 [Example 13, 2-{5-[(3-ethoxy-5-fluoropyridin-2-yl)oxy]pyridin-3-yl}-N-[(3S,4S)-4-fluoropiperidin-3-yl]pyrimidine-5-carboxamide, formate salt] | – | – | – | 57 nM | 3.8 nM | – | –
